Measurements taken from publication doi:10.1101/2021.04.29.441652v1 (biorxiv, 2021).

Molecular target: T1, human σ2 receptor (TMEM97) (Homo sapiens, UniProt Q5BJF2)
Test: biochemical
Assay type: Expi293 membranes
Settings: not given

T1 sequence (Q5BJF2 whole entry): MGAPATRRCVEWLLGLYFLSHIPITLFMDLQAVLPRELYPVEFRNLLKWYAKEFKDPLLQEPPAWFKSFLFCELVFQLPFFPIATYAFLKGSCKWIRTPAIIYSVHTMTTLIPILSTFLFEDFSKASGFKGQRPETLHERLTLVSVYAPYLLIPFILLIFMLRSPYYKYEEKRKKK

Row | Ki [nM] | SMILES
1 | 14.7 | CC1CCN(C2CCC(NC(=O)C(=O)Nc3ccc(C(C)C)cc3)CC2)CC1 (stereo not drawn) [ZINC000131303503]
2 | 6.7 | N/C(=N\Cc1ccc(F)cc1Br)NCC1CCC1 [ZINC000170908795]
3 | 11.7 | O=C(CC1CCCC1)NC1CCN(C[C@H](O)C2CCCCC2)CC1 [ZINC000191344346]

Molecular target: T1, human σ2 receptor (TMEM97)
Test: biochemical
Assay type: Expi293 membranes
Settings: read-out: % of control remaining

Row | remaining activity at 1 µM [%] | SMILES
4 | 98.5 | CC(=O)NCCN1CCC(NC(=O)c2c(Cl)n[nH]c2C)CC1 [ZINC001055479120]
5 | 93.6 | Cn1nnc2c(N3C[C@H]4CC[C@@H](C3)N4C(=O)c3cc[nH]n3)ncnc21 [ZINC001058732454]
6 | 62.6 | CN1CCC[C@@H]1C(=O)NC[C@H]1CCCN1c1ncnc2scnc12 [ZINC001061317651]
7 | 110 | CCc1cc(C(=O)NC[C@H]2CN(CCn3cncn3)CCCO2)no1 [ZINC001073859800]
8 | 113 | CN1CC[C@@H](C(=O)NC[C@H]2CN(Cc3csnn3)CCCO2)C1 [ZINC001073886256]
9 | 111 | C[C@@H](CCNC(=O)C1(CN(C)C)CC1)NC(=O)c1ncccc1O [ZINC001078073018]
10 | 99.4 | CC[C@@H]1[C@@H](NC(=O)Cc2ccc(C)cc2)CCN1C[C@@H]1CCOC1 [ZINC001087646081]
11 | 76.1 | Cc1cc(C)nc(NC[C@@H](O)CNC(=O)[C@@H]2CCc3c[nH]nc3C2)n1 [ZINC001105862991]
12 | 95.8 | CO[C@@H](CNC(=O)C(=O)N1C[C@@H]2C(=O)N(C)C(=O)[C@@H]2C1)CC(C)C [ZINC001119173847]
13 | 107 | O=C(NCCN1CCNC1=O)C(=O)NC[C@H]1CCc2ccccc21 [ZINC001119470858]
14 | 54.5 | COc1ccc2c(c1)C[C@H](CN1CCCC[C@H]1CCC(=O)OC(C)(C)C)O2 [ZINC001195393353]
15 | 124 | Cc1cc(C(=O)N2CCCO[C@@H](CNCC(=O)NC3CC3)C2)n(C)n1 [ZINC001199969207]
16 | 109 | C[C@@H]1CN([C@H]2CCc3ccccc3NC2=O)C[C@H]1NC(=O)/C=C\C(C)(C)C [ZINC001206651458]
17 | 90.8 | CN1C(=O)[C@H]2CN(C(=O)C(=O)NC3CCC(F)(F)CC3)C[C@H]2C1=O [ZINC001261948364]
18 | 222 | COc1cccc2c1OC[C@H](NC(=O)C(=O)N[C@@H]1CC(=O)N(C)C1)C2 [ZINC001341791776]
19 | 104 | O=S(=O)(N[C@@H]1CCc2nnnn2CC1)c1cnc2n1CCCC2 [ZINC001363999416]
20 | 109 | COC[C@@H](O)CN1CC[C@H](NC(=O)c2c(C)c(C)nn(C)c2=O)C1 [ZINC001365986475]
21 | 111 | O=C(CCn1cccn1)NCCN1CCN(CCn2cccn2)CC1 [ZINC001369886058]
22 | 102 | CCC1(C(=O)NCC[C@@H]2CCN(Cc3nccn3C)C2)CCCC1 [ZINC001377717241]
23 | 43.6 | O=C(NCC1CN(CCC2CCCC2)C1)C1(c2cccnc2)CC1 [ZINC001391502525]
24 | 130 | CC(C)N1CC[C@H](CCNC(=O)c2cc(-c3cccnc3)on2)C1 [ZINC001418905447]
25 | 19.6 | Cc1cc(C)nc(C(=O)NCCC2CCN(CCOC(C)C)CC2)c1 [ZINC001419404744]
26 | 104 | O=C(C[C@]1(O)CCCNC1)Nc1cn2cc(Br)ncc2n1 [ZINC001515357045]
27 | 19.6 | Cc1cccc2c1CCN2C(=O)[C@@H]1CC[C@H]2CCCC[C@@H]2N1 [ZINC001579778746]

The next lines start with the compound.

Row | SMILES | remaining activity at 1 µM [%]
28 | CC1CCN(C2CCC(NC(=O)C(=O)Nc3ccc(C(C)C)cc3)CC2)CC1 (stereo not drawn) [ZINC000131303503] | 10.7
29 | N/C(=N\Cc1ccc(F)cc1Br)NCC1CCC1 [ZINC000170908795] | 0.9
30 | O=C(CC1CCCC1)NC1CCN(C[C@H](O)C2CCCCC2)CC1 [ZINC000191344346] | 8.7
31 | Cc1cnc(C(=O)N2C[C@H]3CN(C(=O)CN(C)C(C)C)C[C@H]3C2)cn1 [ZINC001055138151] | 103
32 | O=C(N[C@H]1CCN(c2cc(Cl)c(O)nn2)C1)c1c[nH]c(=O)cn1 [ZINC001058532763] | 95.3
33 | O=C(NCC[C@@H]1CCN(C(=O)c2ccncn2)C1)c1c[nH]c(=O)cn1 [ZINC001060201073] | 76
34 | CN1CCC(C(=O)NC[C@@H]2CCN(c3ncc(Cl)cn3)C2)CC1 [ZINC001061620290] | 91.3
35 | CN(C)C(=O)c1cncc(N[C@H]2CC[C@H](NC(=O)C(N)=O)CC2)n1 [ZINC001063398490] | 146
36 | Cn1cc(C(=O)N2CCO[C@@H](CNC(=O)C=C3CCC3)C2)ncc1=O [ZINC001065434920] | 57.8
37 | O=C(c1cccnn1)N1CCC(O)(CNc2cncc(Cl)n2)CC1 [ZINC001067478391] | 104
38 | C[C@@H]1CN(C(=O)Cc2cncnc2)C[C@H]1NC(=O)CCn1cccn1 [ZINC001071984909] | 89.9
39 | CNC(=O)[C@@H](C)N1CCC2(CN(C(=O)c3c[nH]c4nccc-4c3)C2)C1 [ZINC001072835483] | 81.8
40 | O=C(C[C@H]1C=CCC1)NCC1(O)CCN(C(=O)c2cncnc2)CC1 [ZINC001074556982] | 89.6
41 | NC(=O)C(=O)N1CCC(O)(CNC(=O)[C@H]2CCCCC2(F)F)CC1 [ZINC001074702922] | 109
42 | Cc1c(F)cccc1C(=O)N[C@@H]1CN(CCC2CCCCC2)C[C@H]1O [ZINC001077034834] | 16.5
43 | Cc1ccoc1CC(=O)N1C[C@H]2CCN(CC(=O)N(C)C)C[C@H]2C1 [ZINC001088099598] | 132
44 | Cc1ccc(CN2[C@@H]3CC[C@H]2[C@@H](NC(=O)c2cn(C)cn2)C3)c(C)c1 [ZINC001095312060] | 69.4
45 | C[C@H](C(=O)N[C@H]1C[C@H]2CC[C@@H]1N2CCn1cccn1)c1ccccc1F [ZINC001096194954] | 118
46 | O=C(N[C@@H]1CCN(CCC2CCCC2)C[C@@H]1O)C1(C(F)F)CCC1 [ZINC001099969021] | 28.5
47 | C[C@H](C(=O)N[C@H]1C[C@H]2CC[C@@H]1N2CCOCC1CC1)c1cccs1 [ZINC001109713565] | 28.7
48 | O=C1CN(CC(=O)N[C@H](CNc2cc(F)ncn2)C2CC2)CCN1 [ZINC001109958062] | 90.2
49 | CN(C)S(=O)(=O)CCC(=O)N[C@H]1[C@@H]2CN(Cc3ccon3)C[C@@H]21 [ZINC001115282185] | 109
50 | CN(C[C@@H](O)CN(C)c1ncc(F)cn1)C(=O)CCc1cnn[nH]1 [ZINC001125309519] | 88
51 | CN1CCC[C@@H]1C(=O)NC[C@H]1CN(CCCC(C)(C)C)CCCO1 [ZINC001149399826] | 96.4
52 | C(=C\c1ccccc1)/CNc1ccc2c(n1)CCC2 [ZINC001156463732] | 32.6
53 | Cc1cc(C)cc(C2=CCN(CCC(=O)N3CCc4ccccc43)CC2)c1 [ZINC001168222793] | 13.7

Row | SMILES | remaining activity at 1 µM [%]
54 | C[C@@H](C(=O)NCc1ccc(Cl)cc1)N1CCC(C(C)(C)C)CC1 [ZINC001169307444] | 21.2
55 | CCOCCNC(=O)CN1C[C@@H](O)[C@H](NC(=O)[C@@]23COC[C@@H]2C3)C1 [ZINC001193095852] | 112
56 | CCc1ccc(F)cc1C(=O)N1CCCN(CCOC(C)C)CC1 [ZINC001196417557] | 71.9
57 | CN(C)S(=O)(=O)N(C)CC(=O)N[C@@H]1C[C@H](NCCO)C12CCC2 [ZINC001202928172] | 117
58 | CCNS(=O)(=O)CCNC(=O)C(=O)N[C@@H](C)C1=CCN(C)CC1 [ZINC001261177261] | 70.9
59 | CC[C@H]1CCN(CC(=O)Nc2cc(Cl)ccc2C#N)[C@H]1C [ZINC001307701283] | 62.5
60 | FC(F)(F)c1ccnc([C@H]2CCN(CCCc3ccc4c(c3)CCO4)C2)n1 [ZINC001308961074] | 2.4
61 | OC1(CN2CC(Cc3ccccc3C(F)(F)F)C2)CCC1 [ZINC001320149247] | 14.7
62 | COC(=O)N1CCC[C@H](NC(=O)C(=O)N2CC[C@@](O)(C3CC3)C2)C1 [ZINC001323717111] | 95
63 | COC(=O)[C@@H]1C[C@H](O)CN(C(=O)C(=O)N[C@H](C)C2CCOCC2)C1 [ZINC001326422624] | 99.2
64 | C[C@@H](CNC(=O)C(=O)NCc1nnn(C)n1)N(C)Cc1ccccc1 [ZINC001328800283] | 86.4
65 | O=C(Nc1ccc2c(=O)[nH]ccc2c1)C(=O)N1C[C@H](CO)[C@@H](O)C1 [ZINC001350153389] | 93.3
66 | CN(C[C@H]1CCCN1C)C(=O)[C@]1(C)CC(c2ccccc2Cl)=NO1 [ZINC001362573982] | 94.8
67 | O=C([C@@H]1CCc2nnc(O)n2C1)N1CC(CNC(=O)C(F)(F)F)C1 [ZINC001363211634] | 78.6
68 | Cc1ccnc(CN[C@@H](C)CCNC(=O)c2ccn(C(C)C)c2C)n1 [ZINC001381212829] | 71.1
69 | C[C@@H]1CCC[C@H](CCN(C)CCNC(=O)c2c3c(nn2C)CCC3)C1 [ZINC001399642198] | 21.2
70 | COc1ccc(C(=O)N(C)C[C@H](C)NCC2CCC(C)(C)CC2)nn1 [ZINC001403624658] | 65.3
71 | CC(=O)N[C@@H]1CCN(S(=O)(=O)c2cnn([C@@H]3CCOC3)c2)C1 [ZINC001413380655] | 118
72 | CCN1CCCC[C@H]1C(=O)NC[C@@H](O)CNC(=O)c1cnccn1 [ZINC001416718427] | 80.5
73 | COCC1(C(=O)N2CCC[C@@H](N(C)CC[C@H](C)F)C2)CC1 [ZINC001420054689] | 78.5
74 | Cc1cnc(CN2CC[C@@H](CCNC(=O)c3cncs3)C2)s1 [ZINC001437918206] | 103
75 | Cc1cc(C)c(/C=C\CN2CCC[C@@H](O)C2)cc1C [ZINC001474404955] | 62.3
76 | O=C(OC[C@@H]1CCN1Cc1ccccc1)c1nccc2occc12 [ZINC001525937517] | 117
77 | N[C@H](Cc1ccccn1)C(=O)NCc1ccccc1C(F)(F)F [ZINC001580410121] | 122
78 | C[C@@H]1CN(CC(=O)NCCCO[C@@H](C)c2ccccc2)[C@H](C)CCO1 [ZINC001655120594] | 112
